Data as given in US10023557B2 (LifeSci Pharmaceuticals, Inc., priority 2015, dated 2018).

These molecules were tested against human plasma kallikrein (Homo sapiens (Human), UniProt P03952) (assay: In vitro enzyme inhibition of human plasma kallikrein (PFR-AMC cleavage)). Settings: Pro-Phe-Arg-AMC substrate, 37° C., read-out: hPK IC50.
Assay type: biochemical
Protocol: The ability of the compounds disclosed herein to inhibit human plasma kallikrein activity was quantified according to the procedures below.
A 10 mM solution of the test compound was made in DMSO. […] A control tube containing only DMSO is included. 16 μL of each compound test solution was combined with 384 μL of assay buffer (50 mM Tris-HCl pH 7.5, 150 mM NaCl, 0.01% Triton X-100) to yield a “4× test compound buffer stock”.
These solutions are hereby referred to as 4× hPK and 2×PFR-AMC, respectively.
50 μL was removed from this mixture and placed into duplicate wells on a Microfluor 1Black U-bottom microtiter plate (Thermo Scientific). This plate was incubated for 5 minutes at 37° C. To each well, 50 μL of pre-warmed 2×PFR-AMC was added to start the enzymatic reaction. Cleavage of PFR-AMC was monitored in a Biotek Synergy H4 reader set at 37° C. Readings are taken every 43 seconds for 1 hour. […] The IC50 is calculated using the Gen5 (Biotek Instruments).
The ability of the compounds in Table 3 to inhibit human plasma kallikrein activity was determined.

Chain of human plasma kallikrein (P03952 391-638): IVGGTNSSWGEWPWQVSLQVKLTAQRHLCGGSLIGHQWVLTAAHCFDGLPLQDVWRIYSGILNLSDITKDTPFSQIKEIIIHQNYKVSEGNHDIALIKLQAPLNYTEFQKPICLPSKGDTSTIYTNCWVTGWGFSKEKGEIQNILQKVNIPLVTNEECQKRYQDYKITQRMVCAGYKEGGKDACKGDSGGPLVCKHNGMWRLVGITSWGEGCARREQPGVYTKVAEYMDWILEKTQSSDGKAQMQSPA
Chain of human plasma kallikrein (P03952 20-390 partner): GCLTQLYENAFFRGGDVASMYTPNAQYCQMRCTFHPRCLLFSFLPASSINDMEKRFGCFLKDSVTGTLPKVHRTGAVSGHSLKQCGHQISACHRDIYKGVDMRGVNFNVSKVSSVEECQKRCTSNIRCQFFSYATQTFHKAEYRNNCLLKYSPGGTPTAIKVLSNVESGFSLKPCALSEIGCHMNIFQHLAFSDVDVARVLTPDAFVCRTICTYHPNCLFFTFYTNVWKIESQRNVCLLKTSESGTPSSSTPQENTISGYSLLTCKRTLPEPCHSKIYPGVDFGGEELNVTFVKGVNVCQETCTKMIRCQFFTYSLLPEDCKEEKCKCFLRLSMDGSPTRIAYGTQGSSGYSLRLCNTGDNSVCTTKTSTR

IC50 [nM]	SMILES
< 100	CCc1cnc2ccc(Cc3cc(C(=O)NCc4n[nH]c5ccc(Cl)cc45)ccn3)cc2c1 [Example 284, N-((5-chloro-1H-indazol-3-yl)methyl)-2-((3-ethylquinolin-6-yl)methyl)isonicotinamide]
< 100	CCc1cnc2ccc(Cc3cc(C(=O)NCc4ccc(N)nc4C)ccn3)cc2c1 [Example 285, N-((6-amino-2-methylpyridin-3-yl)methyl)-2-((3-ethylquinolin-6-yl)methyl)isonicotinamide]
1000 to 10000	O=C(NCc1cc2c(Cl)c[nH]c2cc1F)c1ccnc(Cc2ccc3ncc(N4CCOCC4)cc3c2)c1 [Example 292, N-((3-chloro-6-fluoro-1H-indol-5-yl)methyl)-2-((3-morpholinoquinolin-6-yl)methyl)isonicotinamide]
1000 to 10000	Nc1nccc2cc(CNC(=O)c3ccnc(Cc4ccc5ncc(N6CCOCC6)cc5c4)c3)ccc12 [Example 293, N-((1-aminoisoquinolin-6-yl)methyl)-2-((3-morpholinoquinolin-6-yl)methyl)isonicotinamide]
1000 to 10000	O=C(NCc1cnc2[nH]cc(Cl)c2c1)c1ccnc(Cc2ccc3ncc(N4CCOCC4)cc3c2)c1 [Example 294, N-((3-chloro-1H-pyrrolo[2,3-b]pyridin-5-yl)methyl)-2-((3-morpholinoquinolin-6-yl)methyl)isonicotinamide]
1000 to 10000	O=C(NCc1n[nH]c2ccc(Cl)cc12)c1ccnc(Cc2ccc3ncc(N4CCOCC4)cc3c2)c1 [Example 295, N-((5-chloro-1H-indazol-3-yl)methyl)-2-((3-morpholinoquinolin-6-yl)methyl)isonicotinamide]
< 100	COC(c1ccc2ncc(Cl)cc2c1)c1cc(C(=O)NCc2c(C)cc(N)nc2C)ccn1 (stereo not shown) [Example 296, N-((6-amino-2,4-dimethylpyridin-3-yl)methyl)-2-((3-chloroquinolin-6-yl)(methoxy)methyl)isonicotinamide]
100 to 1000	Nc1cnc2ccc(Cc3cc(C(=O)NCc4cc5c(Cl)c[nH]c5cc4F)ccn3)cc2c1 [Example 297, 2-((3-aminoquinolin-6-yl)methyl)-N-((3-chloro-6-fluoro-1H-indol-5-yl)methyl)isonicotinamide]
100 to 1000	Nc1cnc2ccc(Cc3cc(C(=O)NCc4ccc5c(N)nccc5c4)ccn3)cc2c1 [Example 298, N-((1-aminoisoquinolin-6-yl)methyl)-2-((3-aminoquinolin-6-yl)methyl)isonicotinamide]
1000 to 10000	Nc1cnc2ccc(Cc3cc(C(=O)NCc4n[nH]c5ccc(Cl)cc45)ccn3)cc2c1 [Example 299, 2-((3-aminoquinolin-6-yl)methyl)-N-((5-chloro-1H-indazol-3-yl)methyl)isonicotinamide]
1000 to 10000	Nc1cnc2ccc(Cc3cc(C(=O)NCc4cnc5[nH]cc(Cl)c5c4)ccn3)cc2c1 [Example 300, 2-((3-aminoquinolin-6-yl)methyl)-N-((3-chloro-1H-pyrrolo[2,3-b]pyridin-5-yl)methyl)isonicotinamide]
100 to 1000	Nc1cnc2ccc(Cc3cc(C(=O)NCc4ccc5[nH]cc(Cl)c5c4F)ccn3)cc2c1 [Example 301, 2-((3-aminoquinolin-6-yl)methyl)-N-((3-chloro-4-fluoro-1H-indol-5-yl)methyl)isonicotinamide]
1000 to 10000	Nc1nccc2cc(CNC(=O)c3ccnc(Cc4ccc5ncc(N6CCCCC6)cc5c4)c3)ccc12 [Example 303, N-((1-aminoisoquinolin-6-yl)methyl)-2-((3-(piperidin-1-yl)quinolin-6-yl)methyl)isonicotinamide]
> 10000	O=C(NCc1ccc2[nH]cc(Cl)c2c1F)c1ccnc(Cc2ccc3ncc(N4CCCCC4)cc3c2)c1 [Example 305, N-((3-chloro-4-fluoro-1H-indol-5-yl)methyl)-2-((3-(piperidin-1-yl)quinolin-6-yl)methyl)isonicotinamide]
1000 to 10000	O=C(NCc1cnc2[nH]cc(Cl)c2c1)c1ccnc(Cc2ccc3ncc(N4CCCCC4)cc3c2)c1 [Example 306, N-((3-chloro-1H-pyrrolo[2,3-b]pyridin-5-yl)methyl)-2-((3-(piperidin-1-yl)quinolin-6-yl)methyl)isonicotinamide]
100 to 1000	O=C(NCc1n[nH]c2ccc(Cl)cc12)c1ccnc(Cc2ccc3ncc(N4CCCC4)cc3c2)c1 [Example 309, N-((5-chloro-1H-indazol-3-yl)methyl)-2-((3-(pyrrolidin-1-yl)quinolin-6-yl)methyl)isonicotinamide]
100 to 1000	O=C(NCc1cnc2[nH]cc(Cl)c2c1)c1ccnc(Cc2ccc3ncc(N4CCCC4)cc3c2)c1 [Example 310, N-((3-chloro-1H-pyrrolo[2,3-b]pyridin-5-yl)methyl)-2-((3-(pyrrolidin-1-yl)quinolin-6-yl)methyl)isonicotinamide]
100 to 1000	O=C(NCc1ccc2[nH]cc(Cl)c2c1F)c1ccnc(Cc2ccc3ncc(N4CCCC4)cc3c2)c1 [Example 311, N-((3-chloro-4-fluoro-1H-indol-5-yl)methyl)-2-((3-(pyrrolidin-1-yl)quinolin-6-yl)methyl)isonicotinamide]
1000 to 10000	O=C(NCc1n[nH]c2ccc(Cl)cc12)c1ccnc(Cc2ccc3ncc(N4CCNCC4)cc3c2)c1 [Example 312, N-((5-chloro-1H-indazol-3-yl)methyl)-2-((3-(piperazin-1-yl)quinolin-6-yl)methyl)isonicotinamide]
1000 to 10000	O=C(NCc1cc2c(Cl)c[nH]c2cc1F)c1ccnc(Cc2ccc3ncc(N4CCNCC4)cc3c2)c1 [Example 313, N-((3-chloro-6-fluoro-1H-indol-5-yl)methyl)-2-((3-(piperazin-1-yl)quinolin-6-yl)methyl)isonicotinamide]
< 100	Cc1cnc2c(C(C)(C)O)cc(Cc3cc(C(=O)NCc4cc5c(Cl)c[nH]c5cc4F)ccn3)cc2c1 [Example 314, N-((3-chloro-6-fluoro-1H-indol-5-yl)methyl)-2-((8-(2-hydroxypropan-2-yl)-3-methylquinolin-6-yl)methyl)isonicotinamide]

SMILES	IC50 [nM]
O=C(NCc1cc2c(Cl)c[nH]c2cc1F)c1ccnc(Cc2ccc3ncc(N4CCCCC4)cc3c2)c1 [Example 302, N-((3-chloro-6-fluoro-1H-indol-5-yl)methyl)-2-((3-(piperidin-1-yl)quinolin-6-yl)methyl)isonicotinamide]	1000 to 10000
O=C(NCc1cc2c(Cl)c[nH]c2cc1F)c1ccnc(Cc2ccc3ncc(N4CCCC4)cc3c2)c1 [Example 307, N-((3-chloro-6-fluoro-1H-indol-5-yl)methyl)-2-((3-(pyrrolidin-1-yl)quinolin-6-yl)methyl)isonicotinamide]	100 to 1000
Cc1cnc2c(C(C)(C)O)cc(Cc3cc(C(=O)NCc4ccc5[nH]cc(Cl)c5c4F)ccn3)cc2c1 [Example 315, N-((3-chloro-4-fluoro-1H-indol-5-yl)methyl)-2-((8-(2-hydroxypropan-2-yl)-3-methylquinolin-6-yl)methyl)isonicotinamide]	< 100
Cc1cnc2c(C(C)(C)O)cc(Cc3cc(C(=O)NCc4cnc5[nH]cc(Cl)c5c4)ccn3)cc2c1 [Example 316, N-((3-chloro-1H-pyrrolo[2,3-b]pyridin-5-yl)methyl)-2-((8-(2-hydroxypropan-2-yl)-3-methylquinolin-6-yl)methyl)isonicotinamide]	< 100
